Assay results published in publication PMC3423427, “Design and Synthesis of Potent N-Acylethanolamine-hydrolyzing Acid Amidase (NAAA) Inhibitor as Anti-Inflammatory Compounds” (PLoS ONE, 2012).

How the values were obtained:
[1] = target: T1, monoacylglycerol lipase (MGL) (Homo sapiens, UniProt Q99685); assay: MGL activity assay (Figure S1); type: biochemical; conditions: 100 µM (Figure S1)
T1 sequence (Q99685 1-303): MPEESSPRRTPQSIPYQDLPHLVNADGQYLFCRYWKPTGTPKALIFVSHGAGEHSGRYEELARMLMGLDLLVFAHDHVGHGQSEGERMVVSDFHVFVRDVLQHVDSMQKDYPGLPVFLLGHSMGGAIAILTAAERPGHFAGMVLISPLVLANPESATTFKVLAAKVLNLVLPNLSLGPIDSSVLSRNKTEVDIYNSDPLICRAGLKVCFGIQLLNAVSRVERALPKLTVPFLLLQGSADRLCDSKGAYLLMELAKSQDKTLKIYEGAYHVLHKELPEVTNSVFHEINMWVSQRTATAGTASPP
Protocol: Supplementary file pone.0043023.s001.pdf: Figure S1 Effect of vehicle (open bar) and compound 16 (100 µM, closed bars) on the activity of NAAA, FAAH, MGL, and ASAH. ***, p<0.001, one-way ANOVA, n = 3. (PDF) Click here for additional data file.

[2] = 24 hr
Protocol: To evaluate the biological and chemical stability of compound 16, we determined the degradation products of compound 16 in different chemical environments, as well as in rat plasma. First, chemical hydrolysis was evaluated at various pHs, i.e. pH 1.0 and pH 13.0. The hydrolytic product, biphenylpropanoic acid, if any, was detected by thin layer chromatography (TLC) after 24 hr incubation with 0.1 M HCl (pH 1.0) or […] (pH 13.0). […] Second, to test whether compound 16 was sensitive to thermal challenge, we placed compound 16 in 80°C incubator for 24 hr.

NAAA [3] = target: T2, NAAA (Rattus norvegicus, UniProt Q5KTC7); assay: Rapid dilution NAAA assay; type: biochemical; design: made in house; host or cells: HEK293 cells stably overexpressing rat NAAA (HEK293-rNAAA), a gift from D. Piomelli; crude 800 x g supernatant of sonicated cells; conditions: pre-incubation 10-fold IC50, 100-fold dilution
T2 sequence (Q5KTC7 34-362): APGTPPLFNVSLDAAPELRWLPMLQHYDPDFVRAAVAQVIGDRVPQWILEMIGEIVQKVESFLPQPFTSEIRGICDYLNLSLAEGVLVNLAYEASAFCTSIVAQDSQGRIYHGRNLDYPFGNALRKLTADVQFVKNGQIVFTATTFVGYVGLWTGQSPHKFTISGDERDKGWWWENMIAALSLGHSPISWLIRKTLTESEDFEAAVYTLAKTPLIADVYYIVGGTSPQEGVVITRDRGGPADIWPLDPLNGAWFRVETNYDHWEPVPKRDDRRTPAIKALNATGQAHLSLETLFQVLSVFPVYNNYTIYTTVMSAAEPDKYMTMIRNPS
Protocol: Rapid dilution assay was performed as previously described. Briefly, samples containing 100-fold concentrated rNAAA recombinant protein were pre-incubated with 10-fold the IC50-equivalent concentration of compound 16 or vehicle (1% DMSO) for 10 min at 37°C. Samples were then diluted 100-fold with assay buffer containing substrate to initiate reactions, and the time course of product formation was measured by LC/MS.

NAAA [4] = target: T2, NAAA; assay: Dialysis NAAA assay; type: biochemical; design: made in house; host or cells: HEK293 cells stably overexpressing rat NAAA (HEK293-rNAAA), a gift from D. Piomelli; crude 800 x g supernatant of sonicated cells; conditions: 8 hr dialysis
Protocol: Dialysis assay was performed using Slide-A-Lyzer Dialysis Cassettes (Pierce, Shanghai, China). Briefly, 2 mg NAAA protein was incubated with compound 16 or dimethyl sulfoxide (DMSO) in 4 mL Tris-HCl buffer (50 mM, pH 5.0) for 10 minutes at 37°C. Mixed reaction solution was loaded onto a dialysis cartridge using a syringe and incubated in Tris-HCl buffer (50 mM, pH 5.0) at 4°C for 8 h. The samples were removed from Dialysis Cassettes by syringes for NAAA enzymatic assay.

Compound: O=C(CCc1ccc(-c2ccccc2)cc1)N1CCCC1 [Compound 16, 1–(2–Biphenyl–4–yl)ethyl–carbonyl pyrrolidine]
- inhibitory effect on MGL [1]: no inhibitory effect
- stability, 0.1M HCl ([2]; 0.1 M HCl (pH 1.0)): 100%
- hydrolytic product on TLC, acidic medium ([2]; 0.1 M HCl (pH 1.0), TLC EtOAc/PE 1:2): no detectable biphenylpropanoic acid
- hydrolytic product on TLC, basic medium ([2]; 0.1 M NaCl (pH 13.0) as printed, TLC EtOAc/PE 1:2): no detectable biphenylpropanoic acid
- stability, 80°C ([2]; 80°C incubator): 100%
- degradation products on TLC after thermal challenge ([2]; 80°C, TLC EtOAc/PE 1:2): no trace of biphenylpropanoic acid or other corresponding residuals
- stability, 0.1NaOH ([2]; basic medium (pH 13.0)): 100%
- NAAA activity after rapid dilution of inhibitor-NAAA complex (NAAA [3]): almost completely restored the NAAA activity
- NAAA activity after dialysis of inhibitor-NAAA complex (NAAA [4]): almost completely restored the NAAA activity
